Laboratory results from PubChem BioAssay (NCI).
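Assay format: 96-well plates, 48-hour exposure. The concentration for full growth arrest is given as TGI.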 Where a SMILES comes first, the peptide text is derived from it. [ ]: non-standard residue; d: D form. The star is where a group is joined. ξ: configuration not given here. Phe(4-NO2) = N[CH](Cc1ccc([N+](=O)[O-])cc1)C(=O)O; ξF = NC(Cc1ccccc1)C(=O)O; Cbz = O=C(OCc1ccccc1)*; Boc = CC(C)(C)OC(=O)*; Aib = CC(C)(N)C(=O)O; OBn = c1ccc(CO*)cc1

Assays:
Assay in all cases: NCI-60 cell line screen, 48 h
U251 CNS = system: U251 CNS
SNB-75 CNS = system: SNB-75 CNS
EKVX NSCLC = system: EKVX NSCLC
KM12 colon = system: KM12 colon
BT-549 breast = system: BT-549 breast
SK-MEL-5 melanoma = system: SK-MEL-5 melanoma
COLO 205 colon = system: COLO 205 colon
OVCAR-8 ovarian = system: OVCAR-8 ovarian
K-562 leukemia = system: K-562 leukemia
A498 renal = system: A498 renal

Row | Compound | TGI (U251 CNS) | TGI (SNB-75 CNS) | TGI (EKVX NSCLC) | TGI (KM12 colon) | TGI (BT-549 breast) | TGI (SK-MEL-5 melanoma) | TGI (COLO 205 colon) | TGI (OVCAR-8 ovarian) | TGI (K-562 leukemia) | TGI (A498 renal)
1 | c1ccc(CNc2c3c(nc4ccccc24)CCC3)cc1 | 30.4 µM | 43.5 µM | 42.9 µM | 40.3 µM | 37.1 µM | 24.4 µM | 25 µM | 31.7 µM | 26.2 µM | 31.7 µM
2 | COc1ccc(N(C(=O)Nc2ccc(Cl)c(Cl)c2)c2ccccc2)cc1 | > 10 µM | – | > 10 µM | > 10 µM | > 10 µM | > 10 µM | > 10 µM | > 10 µM | > 10 µM | > 10 µM
3 | OC(C1CCC=NN1C(O)(C(F)(F)F)C(F)(F)F)(C(F)(F)F)C(F)(F)F (centres undefined) | > 10 µM | > 10 µM | > 10 µM | > 10 µM | > 10 µM | > 10 µM | > 10 µM | > 10 µM | > 10 µM | > 10 µM
4 | Cc1c(C)c(C)c(-n2[nH]c(=O)n(C)c2=O)c(C)c1C | > 100 µM | > 100 µM | > 100 µM | > 100 µM | > 100 µM | > 100 µM | > 100 µM | > 100 µM | > 100 µM | > 100 µM
5 | COc1cc(-c2nc3cc(F)ccc3s2)ccc1O | > 100 µM | – | 53.5 µM | > 100 µM | > 100 µM | > 100 µM | > 100 µM | > 100 µM | > 100 µM | 83.8 µM
6 | CCOC(C[Se]CC(OCC)OCC)OCC | 38.4 µM | 38.8 µM | > 100 µM | > 100 µM | 94 µM | 29.6 µM | > 100 µM | > 100 µM | > 100 µM | > 100 µM
7 | COC(=O)CCC(NC(=O)OC(C)(C)C)C(=O)NC(Cc1ccc([N+](=O)[O-])cc1)C(=O)NCC(=O)OCc1ccccc1 (centres undefined) (Boc-Glu(OMe)-[Phe(4-NO2)]-Gly-OBn; configuration not given here) | > 100 µM | 48.4 µM | > 100 µM | > 100 µM | 66.9 µM | > 100 µM | > 100 µM | > 100 µM | > 100 µM | > 100 µM
8 | CCCCOC(=O)C(=O)C(CCC(=O)c1ccc(C)cc1)C(=O)C=C(C)C (centres undefined) | > 100 µM | > 100 µM | > 100 µM | > 100 µM | > 100 µM | > 100 µM | – | > 100 µM | > 100 µM | > 100 µM
9 | CC(C)(NC(=O)OCc1ccccc1)C(=O)NC(Cc1ccccc1)C(=O)O (centres undefined) (Cbz-[Aib]-[ξF]-OH) | > 100 µM | > 100 µM | – | > 100 µM | > 100 µM | > 100 µM | > 100 µM | > 100 µM | > 100 µM | > 100 µM
10 | NCCC(N)C(=O)O (centres undefined) | > 100 µM | – | > 100 µM | > 100 µM | > 100 µM | > 100 µM | > 100 µM | > 100 µM | > 100 µM | > 100 µM
11 | N#CC1=C2Sc3ccccc3N2[C@H](c2ccccc2)[C@H]2COC(=O)[C@@H]12 | > 100 µM | 97.1 µM | > 100 µM | > 100 µM | 70.6 µM | > 100 µM | > 100 µM | > 100 µM | – | > 100 µM
